# Where a name gives a salt, the structure may show the parent alone. Read-outs that look alike come from different tables or passages of the source.
# Assays:
# [1] = system: Citrobacter freundii BS-16; assay: In vitro MIC, Broth Dilution Method; assay type: cell-based
# Procedure: (§1) The diluted agents prepared in Mueller-Hinton broth were dispensed from a Dynatech MIC 2000 machine, in 100 microliter (μL) volumes into 96 well trays and used immediately or frozen at -10° to -70° C. until needed. Using a Dynatech inoculator and inoculum trays, 1.5 μL of a 10^-2 dilution of an overnight culture was added to each well of the tray. The tops of the trays were then sealed with tape, and the trays were incubated overnight at 37° C. and then examined with a viewer. The lowest concentration at which no growth was observed was considered to be the minimum inhibitory concentration (MIC).
# [2] = system: Enterobacter cloacae 5699; assay: In vitro MIC, Broth Dilution Method; assay type: cell-based
# Procedure: as §1
# [3] = system: Enterobacter cloacae P99; assay: In vitro MIC, Broth Dilution Method; assay type: cell-based; settings: P99, read-out: In Vitro MIC
# Procedure: as §1
# [4] = system: Escherichia coli 4; assay: In vitro MIC, Broth Dilution Method; assay type: cell-based
# Procedure: as §1
# [5] = system: Escherichia coli TEM-1; assay: In vitro MIC, Broth Dilution Method; assay type: cell-based; settings: TEM1, read-out: In Vitro MIC
# Procedure: as §1
# [6] = system: Klebsiella pneumoniae A; assay: In vitro MIC, Broth Dilution Method; assay type: cell-based; settings: read-out: In Vitro MIC
# Procedure: as §1
# [7] = system: Proteus mirabilis 2; assay: In vitro MIC, Broth Dilution Method; assay type: cell-based
# Procedure: as §1
# [8] = system: Proteus mirabilis 90; assay: In vitro MIC, Broth Dilution Method; assay type: cell-based
# Procedure: as §1
# [9] = system: Proteus vulgaris ATCC 6380; assay: In vitro MIC, Broth Dilution Method; assay type: cell-based
# Procedure: as §1
# [10] = system: Pseudomonas aeruginosa ATCC 27853; assay: In vitro MIC, Broth Dilution Method; assay type: cell-based
# Procedure: as §1
# [11] = system: Pseudomonas aeruginosa Stone 130; assay: In vitro MIC, Broth Dilution Method; assay type: cell-based; settings: STONE130; Broth Dilution Method; Pseudomonas aeruginosa Stone 130; read-out: In Vitro MIC
# Procedure: as §1
# [12] = system: Serratia marcescens SM; assay: In vitro MIC, Broth Dilution Method; assay type: cell-based; settings: read-out: In Vitro MIC
# Procedure: as §1
# [13] = system: Staphylococcus aureus ATCC 29213; assay: In vitro MIC, Broth Dilution Method; assay type: cell-based
# Procedure: as §1
# [14] = system: Staphylococcus aureus Smith; assay: In vitro MIC, Broth Dilution Method; assay type: cell-based; settings: read-out: In Vitro MIC
# Procedure: as §1
# [15] = system: Streptococcus faecalis ATCC 29212; assay: In vitro MIC, Broth Dilution Method; assay type: cell-based; settings: Enterococcus faecalis
# Procedure: as §1
# [16] = system: Streptococcus pneumoniae 6301; assay: In vitro MIC, Broth Dilution Method; assay type: cell-based
# Procedure: as §1
# [17] = system: Enterobacter cloacae 2952B; assay: In vitro MIC, Agar Well Diffusion Method; assay type: cell-based; settings: read-out: In Vitro MIC
# Procedure: (§2) In vitro antimicrobial activity was determined in BBL seed agar. Serial dilutions of the test compound were pipetted into agar wells (80 μL per well). […] For reference, see A. H. Litton, Antibiotics: Assessment of Antimicrobial Activity and Resistance, Academic Press, New York, pages 19-30 (1983).
# [18] = system: Escherichia coli 1269B; assay: In vitro MIC, Agar Well Diffusion Method; assay type: cell-based; settings: read-out: In Vitro MIC
# Procedure: as §2
# [19] = system: Klebsiella pneumoniae 369; assay: In vitro MIC, Agar Well Diffusion Method; assay type: cell-based
# Procedure: as §2
# [20] = system: Micrococcus luteus PCl; assay: In vitro MIC, Agar Well Diffusion Method; assay type: cell-based; settings: read-out: In Vitro MIC
# Procedure: as §2
# [21] = system: Proteus vulgaris 101N; assay: In vitro MIC, Agar Well Diffusion Method; assay type: cell-based; settings: read-out: In Vitro MIC
# Procedure: as §2
# [22] = system: Pseudomonas aeruginosa 56; assay: In vitro MIC, Agar Well Diffusion Method; assay type: cell-based
# Procedure: as §2
# [23] = system: Pseudomonas aeruginosa B; assay: In vitro MIC, Agar Well Diffusion Method; assay type: cell-based; settings: read-out: In Vitro MIC
# Procedure: as §2
# [24] = system: Serratia marcescens SM; assay: In vitro MIC, Agar Well Diffusion Method; assay type: cell-based; settings: read-out: In Vitro MIC
# Procedure: as §2
# [25] = system: Streptococcus faecium ATCC 8043; assay: In vitro MIC, Agar Well Diffusion Method; assay type: cell-based; settings: Enterococcus faecium
# Procedure: as §2
# [26] = system: Streptococcus 82; assay: In vitro MIC, Agar Well Diffusion Method; assay type: cell-based, Streptococcus aureus
# Procedure: as §2
# [27] = BS16, Broth Dilution Method, Citrobacter freundii BS-16, read-out: In Vitro MIC
# [28] = Broth Dilution Method, Enterobacter cloacae 5699, read-out: In Vitro MIC
# [29] = Broth Dilution Method, Escherichia coli 4, read-out: In Vitro MIC
# [30] = Broth Dilution Method, Klebsiella pneumoniae A
# [31] = Proteus mirabilis, 2, read-out: In Vitro MIC
# [32] = Broth Dilution Method, Proteus mirabilis 90, read-out: In Vitro MIC
# [33] = Proteus vulgaris, ATCC6380, read-out: In Vitro MIC
# [34] = ATCC27853, Broth Dilution Method, Pseudomonas aeruginosa ATCC 27853, read-out: In Vitro MIC
# [35] = Broth Dilution Method, Serratia marcescens SM
# [36] = ATCC29213, Broth Dilution Method, Staphylococcus aureus ATCC 29213, read-out: In Vitro MIC
# [37] = Broth Dilution Method, Staphylococcus aureus Smith
# [38] = ATCC29212, Broth Dilution Method, Streptococcus faecalis ATCC 29212, read-out: In Vitro MIC
# [39] = Broth Dilution Method, Streptococcus pneumoniae 6301, read-out: In Vitro MIC
# [40] = Citrobacter freundii, BS16, read-out: In Vitro MIC
# [41] = Enterobacter cloacae, 5699, read-out: In Vitro MIC
# [42] = ATCC6380, Broth Dilution Method, Proteus vulgaris ATCC 6380, read-out: In Vitro MIC
# [43] = Escherichia coli, 4, read-out: In Vitro MIC
# [44] = Broth Dilution Method, Proteus mirabilis 2, read-out: In Vitro MIC
# [45] = Agar Well Diffusion Method, Enterobacter cloacae 2952B
# [46] = Agar Well Diffusion Method, Escherichia coli 1269B
# [47] = Agar Well Diffusion Method, Klebsiella pneumoniae 369, read-out: In Vitro MIC
# [48] = Agar Well Diffusion Method, Micrococcus luteus PCl
# [49] = Agar Well Diffusion Method, Proteus vulgaris 101N
# [50] = Agar Well Diffusion Method, Pseudomonas aeruginosa 56, read-out: In Vitro MIC
# [51] = Agar Well Diffusion Method, Pseudomonas aeruginosa B
# [52] = Agar Well Diffusion Method, Serratia marcescens SM
# [53] = ATCC8043, Agar Well Diffusion Method, Streptococcus faecium ATCC 8043, read-out: In Vitro MIC
# [54] = Agar Well Diffusion Method, Streptococcus aureus 82, read-out: In Vitro MIC
SMILES,"MIC [1, 27] [µg/mL]","MIC [2, 28] [µg/mL]",MIC [3] [µg/mL],"MIC [4, 29] [µg/mL]",MIC [5] [µg/mL],"MIC [6, 30] [µg/mL]","MIC [7, 31] [µg/mL]","MIC [8, 32] [µg/mL]","MIC [9, 33] [µg/mL]","MIC [10, 34] [µg/mL]",MIC [11] [µg/mL],"MIC [12, 35] [µg/mL]","MIC [13, 36] [µg/mL]","MIC [14, 37] [µg/mL]","MIC [15, 38] [µg/mL]","MIC [16, 39] [µg/mL]","MIC [1, 40] [µg/mL]","MIC [2, 41] [µg/mL]","MIC [9, 42] [µg/mL]",MIC ([12]; Serratia marcescens) [µg/mL],also measured
"CCn1cc(C(=O)O)c(=O)c2cc(F)c(N3CCN(C=N[C@@H]4C(=O)N5C(C(=O)O)=C(COC(C)=O)CS[C@H]45)CC3)cc21 [Compound I, [6R-[6α,7β(Z)]]-7-[4-[[[3-[Acetyloxy)methyl]-2-carboxylic-8-oxo-5-thia-1-azabicyclo[4..0]oct-2-en-7-yl]imino]methyl]-1-piperazinyl]-1-ethyl-6-fluoro-1,4-dihydro-4-oxo-3-quinolinecarboxylic acid monosodium salt]",0.25,0.125,0.063,0.125,0.063,0.125,0.063,0.5,0.063,8,1,0.125,2,0.25,4,0.5,,,,,
"CCn1cc(C(=O)O)c(=O)c2cc(F)c(N3CCCN(C=N[C@@H]4C(=O)N5[C@@H]4SC(C)(C)[C@@H]5C(=O)O)CC3)nc21 [Compound K, [2S-(2α,5α,6β)]-7-[4-[[2-Carboxy-3,3-dimethyl-7-oxo-4-thia-1-azabicyclo[3.2.0]hept-6-yl)-imino]methyl]hexahydro-1H, 1,4-diazepin-1-yl]-1-ethyl-6-fluoro-1,4-dihydro-4-oxo-1,8-naphthyridine--carboxylic acid disodium salt]",,,1,2,1,2,4,8,,,8,,16,2,128,2,4,4,2,4,
"CCn1cc(C(=O)[O-])c(=O)c2cc(F)c(N3CCN(C=N[C@@H]4C(=O)N(S(=O)(=O)[O-])[C@@H]4COC(N)=O)CC3)cc21.[Na+].[Na+] [Compound F, (2S-cis)-7-[4-[[[2-[[(Aminocarbonyl)oxy]methyl]-4-oxo-1-sulfo-3-azetidinyl]imino]methyl]-1-piperazinyl]-1-ethyl-6-fluoro-1,4-dihydro-4-oxo-3-quinolinecarboxylic acid disodium salt]",,,0.125,,0.063,,0.063,,0.031,,,,,,,,,0.063,,0.063,"MIC [4, 43]: 0.125 µg/mL; MIC ([6]; Klebsiella pneumoniae): 0.125 µg/mL; MIC ([10]; Pseudomonas aeruginosa, ATCC27853, read-out: In Vitro MIC): 2 µg/mL; MIC ([13]; Staphylococcus aureus, ATCC29213, read-out: In Vitro MIC): 2 µg/mL; MIC ([15]; ATCC29212, read-out: In Vitro MIC): 4 µg/mL; MIC ([16]; Streptococcus pneumoniae, 6301, read-out: In Vitro MIC): 8 µg/mL; MIC ([17]; Enterobacter cloacae, 2952B): 31.3 µg/mL; MIC ([18]; Escherichia coli, 1269B): 7.8 µg/mL; MIC ([19]; Klebsiella pneumoniae, 369, read-out: In Vitro MIC): 3.9 µg/mL; MIC ([20]; Micrococcus luteus): 500 µg/mL; MIC ([21]; Proteus vulgaris, 101N): 1.95 µg/mL; MIC ([22]; Pseudomonas aeruginosa, 56, read-out: In Vitro MIC): 7.8 µg/mL; MIC ([23]; Pseudomonas aeruginosa): 7.8 µg/mL; MIC ([24]; Serratia marcescens): 62.5 µg/mL; MIC ([25]; ATCC8043, read-out: In Vitro MIC): 500 µg/mL; MIC ([26]; Streptococcus, 82, read-out: In Vitro MIC): 31.3 µg/mL"
"CCn1cc(C(=O)O)c(=O)c2cc(F)c(N3CCN(C=N[C@@H]4C(=O)N5[C@@H]4SC(C)(C)[C@@H]5C(=O)O)CC3)cc21 [Compound B, [2S-(2α,5α,6β)]-7-[4-[[[2-(Carboxy)-3,3-dimethyl-7-oxo-4-thia-1-azabicyclo[3.2.0]hept-6-yl]imino]methyl]-1-piperazinyl]-1-ethyl-6-fluoro-1,4-dihydro-4-oxo-3-quinolinecarboxylic acid monosodium salt]",0.25,,0.063,,0.031,0.125,,,0.063,8,,0.125,,0.25,2,,,0.063,,,"MIC [7, 44]: 0.125 µg/mL; MIC [17, 45]: 15.6 µg/mL; MIC [18, 46]: 0.98 µg/mL; MIC [19, 47]: 3.9 µg/mL; MIC [20, 48]: 31.3 µg/mL; MIC [21, 49]: 1.95 µg/mL; MIC [22, 50]: 7.8 µg/mL; MIC [23, 51]: 7.8 µg/mL; MIC [24, 52]: 62.5 µg/mL; MIC [25, 53]: 62.5 µg/mL; MIC [26, 54]: 7.8 µg/mL"
"CCn1cc(C(=O)O)c(=O)c2cc(F)c(N3CCN(C=N[C@@H]4C(=O)N5C(C(=O)O)=C(CSc6nc(=O)c(=O)[nH]n6C)CS[C@H]45)CC3)cc21 [Compound J, [6R-[6α,7β(Z)]]-7-[4-[[[2-Carboxy-3-[[(1,2,5,6-tetrahydro-2-methyl-5,6-dioxo-1,2,4-triazin-3-yl)thio]methyl]-8-oxo-5-thia-1-azabicyclo[4.2.0]-oct-2-en-7-yl]-imino]methyl]-1-piperazinyl]-ethyl-6-fluoro-1,4-dihydro-4-oxo-3-quinolinecarboxylic acid disodium salt]",,0.25,0.5,,0.25,0.5,,,,16,8,,2,,0.25,2,0.5,,0.125,0.5,"MIC [4, 43]: 0.25 µg/mL; MIC [7, 44]: 0.5 µg/mL; MIC ([8]; Proteus mirabilis, 90, read-out: In Vitro MIC): 1 µg/mL; MIC ([14]; Staphylococcus aureus): 1 µg/mL"
"CCn1cc(C(=O)O)c(=O)c2cc(F)c(N3CCN(C=N[C@@H]4C(=O)N5C(C(=O)O)=C(C)CS[C@H]45)CC3)cc21 [Compound C, 6R-[6α,7β(E(]]-7-[4-[[(2-Carboxy-3-methyl-8-oxo-5-thia-1-azabicyclo[4.2.0]oct-2-en-7-yl)imino]-methyl]-1-piperazinyl]-1-ethyl-6-fluoro-1,4-dihydro-4-oxo-3-quinolinecarboxylic acid disodium salt]",0.25,,0.125,0.125,0.063,0.125,0.063,0.25,0.063,2,,0.125,1,,8,8,,0.063,,,"MIC [17, 45]: 7.8 µg/mL; MIC [18, 46]: 3.9 µg/mL; MIC [19, 47]: 3.9 µg/mL; MIC [20, 48]: 250 µg/mL; MIC [21, 49]: 0.98 µg/mL; MIC [22, 50]: 3.9 µg/mL; MIC [23, 51]: 3.9 µg/mL; MIC [24, 52]: 3.9 µg/mL; MIC [25, 53]: 500 µg/mL; MIC [26, 54]: 15.6 µg/mL"

# Source: patent US5159077A, “Penam antibacterial compounds” (Hoffmann-La Roche Inc., priority 1989, dated 1992)
